Laboratory results as given in the supplement of paper PMC10307832.

What was measured:
Experiment in all cases: relative viability (nuclei count vs DMSO), 5 days (fraction); higher = more cells survive
Crenolanib + Pictilisib = compound: CC1(COc2ccc3c(c2)ncn3-c2ccc3cccc(N4CCC(N)CC4)c3n2)COC1 [Crenolanib] + CS(=O)(=O)N1CCN(Cc2cc3nc(-c4cccc5[nH]ncc45)nc(N4CCOCC4)c3s2)CC1 [Pictilisib] (partner 1 µM)
Summary of the method: (§1)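 Relative viability was taken as the ratio of nuclei in treated wells to nuclei in vehicle wells. Lung cancer cell lines in 1536-well plates received compounds by pin tool one day after seeding, either one drug alone or a fixed anchor-drug dose plus five library-drug doses (not always all listed) in √10 steps. Nuclei were counted on 4× images after 5 days of treatment, and values are medians of duplicate plates.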

Crenolanib + Decitabine = compound: CC1(COc2ccc3c(c2)ncn3-c2ccc3cccc(N4CCC(N)CC4)c3n2)COC1 [Crenolanib] + Nc1ncn([C@H]2C[C@H](O)[C@@H](CO)O2)c(=O)n1 [Decitabine] (partner 2 µM)
Summary of the method: as §1

Tivantinib + Trametinib = compound: O=C1NC(=O)[C@@H](c2cn3c4c(cccc24)CCC3)[C@@H]1c1c[nH]c2ccccc12 [Tivantinib] + CC(=O)Nc1cccc(-n2c(=O)n(C3CC3)c(=O)c3c(Nc4ccc(I)cc4F)n(C)c(=O)c(C)c32)c1 [Trametinib] (partner 0.02 µM)
Summary of the method: as §1

Tivantinib + AZD7762 = compound: O=C1NC(=O)[C@@H](c2cn3c4c(cccc24)CCC3)[C@@H]1c1c[nH]c2ccccc12 [Tivantinib] + NC(=O)Nc1cc(-c2cccc(F)c2)sc1C(=O)N[C@H]1CCCNC1 [AZD7762] (partner 0.2 µM)
Summary of the method: as §1

Cell Line | relative viability (Crenolanib + Pictilisib; first compound 0.01 µM) | relative viability (Crenolanib + Pictilisib; first compound 0.03162 µM) | relative viability (Crenolanib + Pictilisib; first compound 0.1 µM) | relative viability (Crenolanib + Pictilisib; first compound 0.3162 µM) | relative viability (Crenolanib + Pictilisib; first compound 1 µM) | relative viability (Crenolanib + Decitabine; first compound 0.01 µM) | relative viability (Crenolanib + Decitabine; first compound 0.03162 µM) | relative viability (Crenolanib + Decitabine; first compound 0.1 µM) | relative viability (Crenolanib + Decitabine; first compound 0.3162 µM) | relative viability (Crenolanib + Decitabine; first compound 1 µM) | relative viability (Tivantinib + Trametinib; first compound 0.01 µM) | relative viability (Tivantinib + Trametinib; first compound 0.03162 µM) | relative viability (Tivantinib + Trametinib; first compound 0.1 µM) | relative viability (Tivantinib + Trametinib; first compound 0.3162 µM) | relative viability (Tivantinib + AZD7762; first compound 0.01 µM) | relative viability (Tivantinib + AZD7762; first compound 0.03162 µM) | relative viability (Tivantinib + AZD7762; first compound 0.1 µM) | relative viability (Tivantinib + AZD7762; first compound 0.3162 µM)
NCI-H2087 | 0.804 | 0.918 | 0.665 | 0.761 | 0.861 | 0.267 | 0.341 | 0.427 | 0.303 | 0.335 | 0.217 | 0.184 | 0.227 | 0.172 | 1.28 | 1.47 | 1.12 | 1.32
NCI-H2126 | 0.504 | 0.509 | 0.51 | 0.47 | 0.476 | 0.544 | 0.564 | 0.61 | 0.659 | 0.586 | 0.522 | 0.549 | 0.573 | 0.545 | 1 | 1.03 | 0.94 | 1.04
NCI-H2170 | 0.376 | 0.296 | 0.32 | 0.272 | 0.305 | 0.474 | 0.504 | 0.452 | 0.506 | 0.454 | 0.934 | 0.847 | 0.844 |  | 0.878 | 0.822 | 0.794 | 
NCI-H2347 | 0.55 | 0.625 | 0.464 | 0.845 | 0.561 | 0.657 | 0.611 | 0.605 | 0.674 | 0.6 | 0.246 | 0.316 | 0.231 | 0.248 | 0.848 | 0.727 | 0.669 | 0.534
NCI-H2405 | 0.473 | 0.417 | 0.285 | 0.347 | 0.375 | 0.775 |  | 0.671 | 0.781 | 0.686 | 0.771 | 0.63 | 0.615 | 0.597 | 0.877 | 0.806 | 0.753 | 0.828
NCI-H3122 | 0.549 | 0.497 | 0.561 | 0.732 | 0.738 | 0.433 | 0.424 | 0.468 | 0.546 | 0.478 | 0.219 | 0.216 | 0.199 | 0.202 | 1.05 | 1.07 | 0.761 | 0.923
PC-3 [JPC-3] | 0.736 | 0.635 | 0.746 | 0.695 | 0.703 | 0.785 |  | 0.806 | 0.82 | 0.806 | 0.731 | 0.726 | 0.693 | 0.513 | 0.781 | 0.823 | 0.884 | 0.601
PC-14 | 0.661 | 0.787 | 0.588 | 0.744 | 0.65 | 0.167 | 0.195 | 0.212 | 0.21 | 0.226 | 0.671 | 0.811 | 0.753 | 0.452 | 0.296 | 0.304 | 0.4 | 0.226
RERF-LC-KJ | 0.548 | 0.591 | 0.538 | 0.621 | 0.687 | 0.672 | 0.699 | 0.635 | 0.697 | 0.717 | 0.875 | 0.845 | 0.855 | 0.688 | 1.08 | 0.921 | 0.952 | 0.92
